The text below walks through data of patent US9050341B2, “Methods of treating drug resistant and other tumors by administering 6,7-dialkoxy quinazoline derivatives” (NATCO PHARMA LIMITED, priority 2009, dated 2015).

Test in all cases: KinomeScan kinase profiling
Common to all, as to format: binding

In one assay the target is T1, p38-gamma (Homo sapiens, UniProt P53778).
T1 construct: host or cells: E. coli host derived from the BL21 strain, infected with T7 phage
The gist of the method: (§1)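 Kinases were expressed as T7 phage fusions in a BL21-derived E. coli host and the cleared lysates were used. Ligand beads were blocked with biotin and buffer (1% BSA, 0.05% Tween 20, 1 mM DTT). Compounds came from 40× DMSO stocks, and phage in the eluates was titred by qPCR.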

For a further assay, the target named is T2, MAP4K3 (Homo sapiens, UniProt Q8IVH8).
T2 construct: host or cells: E. coli derived from BL21, infected with T7 phage
The gist of the method:
as §1

Another assay concerns the target T3, CSNK1A1L (Homo sapiens, UniProt Q8N752).
T3 construct: host or cells: T7 phage in E. coli (BL21-derived)
The gist of the method:
as §1

The target in a further assay is T4, INSR (Homo sapiens, UniProt P06213).
T4 construct: host or cells: T7 phage in E. coli host derived from BL21
The gist of the method:
as §1

The target of the next assay is T5, ABL1 (Y253F) (Homo sapiens, UniProt P00519, Y253F).
T5 construct: host or cells: E. coli host derived from BL21 (T7 phage lysate)
In outline:
as §1

A further assay deals with T6, MAP4K5 (Homo sapiens, UniProt Q9Y4K4).
T6 construct: host or cells: E. coli derived from BL21, infected with T7 phage
T6 sequence (Q9Y4K4 whole entry): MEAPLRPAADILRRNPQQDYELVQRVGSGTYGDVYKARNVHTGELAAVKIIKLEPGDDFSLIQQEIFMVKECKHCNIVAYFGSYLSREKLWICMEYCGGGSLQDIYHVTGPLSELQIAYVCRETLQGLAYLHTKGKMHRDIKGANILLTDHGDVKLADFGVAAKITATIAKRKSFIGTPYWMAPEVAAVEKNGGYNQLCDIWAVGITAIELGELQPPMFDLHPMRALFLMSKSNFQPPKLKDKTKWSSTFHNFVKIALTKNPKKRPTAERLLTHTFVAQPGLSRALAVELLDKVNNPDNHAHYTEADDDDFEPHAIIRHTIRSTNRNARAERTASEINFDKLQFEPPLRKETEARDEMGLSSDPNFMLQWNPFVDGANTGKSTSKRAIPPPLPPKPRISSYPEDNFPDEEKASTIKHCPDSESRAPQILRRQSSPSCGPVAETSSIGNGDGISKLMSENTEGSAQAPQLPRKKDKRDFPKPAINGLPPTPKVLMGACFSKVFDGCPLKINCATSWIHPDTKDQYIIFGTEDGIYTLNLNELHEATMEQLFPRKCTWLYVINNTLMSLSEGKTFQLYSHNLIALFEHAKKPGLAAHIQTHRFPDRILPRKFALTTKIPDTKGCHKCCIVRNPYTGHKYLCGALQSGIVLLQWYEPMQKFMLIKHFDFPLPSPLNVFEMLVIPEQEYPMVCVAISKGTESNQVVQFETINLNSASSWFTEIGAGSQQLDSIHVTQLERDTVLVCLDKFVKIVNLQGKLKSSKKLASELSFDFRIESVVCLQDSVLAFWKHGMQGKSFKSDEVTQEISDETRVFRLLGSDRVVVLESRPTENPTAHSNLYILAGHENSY
The gist of the method:
as §1

Another assay concerns the target T7, DRAK2 (Homo sapiens, UniProt O94768).
T7 construct: purchased Ambit Biosciences Corp (KinomeScan); host or cells: T7 phage in E. coli host derived from BL21
The gist of the method: as §1

Another assay addresses T8, MST1 (Homo sapiens, UniProt Q13043).
T8 construct: host or cells: T7 phage in E. coli host derived from BL21
The gist of the method: as §1

The next assay deals with T9, EPHB3 (Homo sapiens, UniProt P54753).
T9 construct: host or cells: E. coli host derived from BL21, T7 phage lysate
T9 sequence (P54753 34-998): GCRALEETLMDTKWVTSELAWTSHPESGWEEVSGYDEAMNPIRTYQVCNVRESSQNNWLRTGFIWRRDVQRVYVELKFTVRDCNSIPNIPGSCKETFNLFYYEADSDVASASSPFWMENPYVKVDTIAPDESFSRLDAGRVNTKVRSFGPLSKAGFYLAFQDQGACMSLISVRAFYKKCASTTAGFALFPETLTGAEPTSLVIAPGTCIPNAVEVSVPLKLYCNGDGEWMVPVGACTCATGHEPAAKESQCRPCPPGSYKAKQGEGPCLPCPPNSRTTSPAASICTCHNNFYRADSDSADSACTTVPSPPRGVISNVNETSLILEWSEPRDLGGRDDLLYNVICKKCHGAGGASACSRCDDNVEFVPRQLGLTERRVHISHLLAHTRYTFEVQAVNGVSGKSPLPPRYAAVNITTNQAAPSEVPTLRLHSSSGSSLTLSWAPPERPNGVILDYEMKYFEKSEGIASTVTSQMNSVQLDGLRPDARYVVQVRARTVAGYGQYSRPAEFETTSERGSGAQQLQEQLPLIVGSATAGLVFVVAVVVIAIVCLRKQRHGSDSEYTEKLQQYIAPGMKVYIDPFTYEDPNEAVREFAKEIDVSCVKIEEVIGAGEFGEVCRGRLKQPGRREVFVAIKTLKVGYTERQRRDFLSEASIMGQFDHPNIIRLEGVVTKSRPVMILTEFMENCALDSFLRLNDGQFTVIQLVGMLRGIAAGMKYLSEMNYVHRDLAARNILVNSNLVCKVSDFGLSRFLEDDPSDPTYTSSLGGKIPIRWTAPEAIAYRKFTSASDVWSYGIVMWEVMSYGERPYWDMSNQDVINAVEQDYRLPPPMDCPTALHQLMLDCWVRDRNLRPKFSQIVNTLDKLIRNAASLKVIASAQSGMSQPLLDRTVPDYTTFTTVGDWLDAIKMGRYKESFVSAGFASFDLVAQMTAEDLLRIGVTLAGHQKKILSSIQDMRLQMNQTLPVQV
The gist of the method:
as §1

Another assay concerns the target T10, FLT3 (K663Q) (Homo sapiens, UniProt P36888, K663Q).
T10 construct: host or cells: E. coli host derived from BL21, infected with T7 phage
In outline:
as §1

A further assay concerns the target T11, CLK1 (Homo sapiens, UniProt P49759).
T11 construct: host or cells: T7 phage in E. coli (BL21-derived)
In outline:
as §1

Assay [1] addresses T12, RPS6KA2 (Kin.Dom.-2-C-terminal) (Homo sapiens, UniProt Q15349).
T12 construct: RPS6KA2 (Kin.Dom.-2-C-terminal); host or cells: E. coli host derived from BL21, T7 phage lysate
The gist of the method:
as §1

A further assay addresses T13, BTK (Homo sapiens, UniProt Q06187).
T13 construct: purchased Ambit Biosciences Corp (KinomeScan); host or cells: E. coli host derived from the BL21 strain, T7 phage
In outline:
as §1

The target of a further assay is T14, TAOK3 (Homo sapiens, UniProt Q9H2K8).
T14 construct: host or cells: E. coli host derived from the BL21 strain, T7 phage lysate
In outline:
as §1

Another assay addresses T15, FGFR3 (G697C) (Homo sapiens, UniProt P22607, G697C).
T15 construct: host or cells: E. coli host derived from BL21, infected with T7 phage
In outline:
as §1

A further assay addresses T16, PIM2 (Homo sapiens, UniProt Q9P1W9).
T16 construct: purchased Ambit Biosciences Corp (KinomeScan); host or cells: E. coli host derived from BL21, infected with T7 phage
In outline: as §1

Another assay deals with T17, PAK3 (Homo sapiens, UniProt O75914).
T17 construct: host or cells: E. coli host derived from the BL21 strain, infected with T7 phage
T17 sequence (O75914 whole entry): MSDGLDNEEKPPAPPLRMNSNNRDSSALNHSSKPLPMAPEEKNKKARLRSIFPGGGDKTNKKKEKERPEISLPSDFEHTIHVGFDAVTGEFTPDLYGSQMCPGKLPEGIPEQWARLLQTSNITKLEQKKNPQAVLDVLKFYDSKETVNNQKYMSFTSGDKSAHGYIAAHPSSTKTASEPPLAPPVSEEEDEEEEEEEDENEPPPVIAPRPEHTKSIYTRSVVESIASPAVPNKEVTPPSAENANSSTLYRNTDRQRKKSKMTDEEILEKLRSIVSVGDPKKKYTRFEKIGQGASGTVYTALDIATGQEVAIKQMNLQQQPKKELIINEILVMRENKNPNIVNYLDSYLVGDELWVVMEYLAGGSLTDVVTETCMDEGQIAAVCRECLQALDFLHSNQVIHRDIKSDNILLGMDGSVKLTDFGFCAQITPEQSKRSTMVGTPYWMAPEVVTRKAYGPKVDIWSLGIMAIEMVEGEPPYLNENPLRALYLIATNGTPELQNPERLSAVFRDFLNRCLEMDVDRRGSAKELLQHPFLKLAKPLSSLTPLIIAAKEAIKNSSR
In outline: as §1

In the next assay the target is T18, EPHA6 (Homo sapiens, UniProt Q9UF33).
T18 construct: host or cells: E. coli host derived from BL21, T7 phage lysate
In outline: as §1

Another assay has as its target T19, CAMK1G (Homo sapiens, UniProt Q96NX5).
T19 construct: purchased Ambit Biosciences Corp (KinomeScan); host or cells: E. coli host derived from the BL21 strain, T7 phage
In outline: as §1

A further assay addresses T20, PRKX (Homo sapiens, UniProt P51817).
T20 construct: host or cells: E. coli host derived from BL21, T7 phage lysate
The gist of the method:
as §1

The target in the next assay is T21, FGFR4 (Homo sapiens, UniProt P22455).
T21 construct: host or cells: E. coli host derived from BL21, infected with T7 phage
In outline:
as §1

T16 sequence (Q9P1W9 whole entry): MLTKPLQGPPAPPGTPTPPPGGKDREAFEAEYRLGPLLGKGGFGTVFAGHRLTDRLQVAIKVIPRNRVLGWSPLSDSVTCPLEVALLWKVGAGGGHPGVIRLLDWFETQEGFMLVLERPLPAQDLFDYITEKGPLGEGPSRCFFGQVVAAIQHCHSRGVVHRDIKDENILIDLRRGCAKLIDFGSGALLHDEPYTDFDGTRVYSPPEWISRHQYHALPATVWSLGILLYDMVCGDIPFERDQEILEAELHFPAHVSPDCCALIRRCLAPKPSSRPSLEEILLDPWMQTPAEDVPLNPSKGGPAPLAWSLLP
T15 sequence (P22607 23-806 G697C): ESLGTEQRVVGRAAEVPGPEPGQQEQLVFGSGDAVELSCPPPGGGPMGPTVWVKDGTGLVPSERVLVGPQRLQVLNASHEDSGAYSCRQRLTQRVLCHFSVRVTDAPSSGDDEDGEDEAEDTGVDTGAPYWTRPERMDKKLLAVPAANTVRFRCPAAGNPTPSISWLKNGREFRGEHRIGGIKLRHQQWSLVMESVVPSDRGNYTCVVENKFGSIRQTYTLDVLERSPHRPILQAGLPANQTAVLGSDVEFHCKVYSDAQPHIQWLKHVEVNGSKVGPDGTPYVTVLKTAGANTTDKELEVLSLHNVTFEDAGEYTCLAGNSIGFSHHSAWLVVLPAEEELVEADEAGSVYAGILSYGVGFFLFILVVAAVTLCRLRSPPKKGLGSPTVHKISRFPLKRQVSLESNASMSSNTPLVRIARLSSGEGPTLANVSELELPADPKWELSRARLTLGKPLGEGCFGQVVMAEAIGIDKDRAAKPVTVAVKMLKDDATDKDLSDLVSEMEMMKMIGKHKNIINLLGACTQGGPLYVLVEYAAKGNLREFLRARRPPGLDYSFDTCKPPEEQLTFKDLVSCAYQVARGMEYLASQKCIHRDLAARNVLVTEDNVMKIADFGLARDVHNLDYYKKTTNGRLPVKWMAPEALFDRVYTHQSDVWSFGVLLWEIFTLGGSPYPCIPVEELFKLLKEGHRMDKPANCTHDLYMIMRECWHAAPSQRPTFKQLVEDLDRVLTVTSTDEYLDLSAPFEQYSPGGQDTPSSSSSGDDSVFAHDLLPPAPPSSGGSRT
T1 sequence (P53778 whole entry): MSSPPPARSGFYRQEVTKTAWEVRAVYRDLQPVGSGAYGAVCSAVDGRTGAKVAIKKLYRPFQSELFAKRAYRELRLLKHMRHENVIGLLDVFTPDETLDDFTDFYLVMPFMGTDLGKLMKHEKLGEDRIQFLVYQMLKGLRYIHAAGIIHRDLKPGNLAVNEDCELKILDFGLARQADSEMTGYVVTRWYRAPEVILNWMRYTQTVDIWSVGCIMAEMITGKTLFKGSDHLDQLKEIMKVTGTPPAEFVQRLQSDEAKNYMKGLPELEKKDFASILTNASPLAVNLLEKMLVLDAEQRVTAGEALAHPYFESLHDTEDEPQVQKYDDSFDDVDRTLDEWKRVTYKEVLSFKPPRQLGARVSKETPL
T7 sequence (O94768 whole entry): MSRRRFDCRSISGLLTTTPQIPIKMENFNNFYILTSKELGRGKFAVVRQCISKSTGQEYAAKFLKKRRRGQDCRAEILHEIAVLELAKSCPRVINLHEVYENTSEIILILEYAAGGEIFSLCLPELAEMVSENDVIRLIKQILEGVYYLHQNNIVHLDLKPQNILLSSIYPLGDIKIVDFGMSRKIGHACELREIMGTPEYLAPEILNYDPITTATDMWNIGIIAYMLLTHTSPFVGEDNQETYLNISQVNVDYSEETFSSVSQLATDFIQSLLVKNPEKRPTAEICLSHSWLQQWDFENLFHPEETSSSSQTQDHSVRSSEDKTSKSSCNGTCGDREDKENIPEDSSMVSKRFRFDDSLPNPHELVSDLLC
T8 sequence (Q13043 whole entry): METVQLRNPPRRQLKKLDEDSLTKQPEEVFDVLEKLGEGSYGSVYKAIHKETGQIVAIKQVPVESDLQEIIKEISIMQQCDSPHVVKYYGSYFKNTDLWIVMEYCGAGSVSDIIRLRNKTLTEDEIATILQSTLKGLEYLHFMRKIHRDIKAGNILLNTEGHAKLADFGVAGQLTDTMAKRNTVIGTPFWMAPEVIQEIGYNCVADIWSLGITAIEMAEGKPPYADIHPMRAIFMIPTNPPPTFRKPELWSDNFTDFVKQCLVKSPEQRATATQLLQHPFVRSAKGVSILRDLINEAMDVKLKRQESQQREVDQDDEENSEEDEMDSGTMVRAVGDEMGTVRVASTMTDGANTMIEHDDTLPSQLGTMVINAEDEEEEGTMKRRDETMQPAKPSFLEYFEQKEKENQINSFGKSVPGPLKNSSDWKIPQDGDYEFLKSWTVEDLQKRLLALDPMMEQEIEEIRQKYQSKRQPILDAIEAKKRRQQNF
T12 sequence (Q15349 415-672 limits assumed): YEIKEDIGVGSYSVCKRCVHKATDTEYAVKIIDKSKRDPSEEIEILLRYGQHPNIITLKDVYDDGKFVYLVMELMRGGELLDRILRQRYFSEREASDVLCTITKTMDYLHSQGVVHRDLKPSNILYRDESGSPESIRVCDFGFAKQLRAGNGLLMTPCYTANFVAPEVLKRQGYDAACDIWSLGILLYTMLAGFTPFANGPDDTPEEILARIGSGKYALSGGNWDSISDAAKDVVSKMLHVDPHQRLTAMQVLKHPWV

`C#Cc1cccc(Nc2ncnc3cc(OC)c(OCCCN4CCOCC4)cc23)c1` [NRC-2694, N-(3-ethylnylphenyl)-7-methoxy-6-[3-(4-morpholinyl)propoxy]-4-quinazolinamine]: the “% Ctrl @ 10000 nM” value is recorded as 97 % Ctrl on p38-gamma; 52 % Ctrl at MAP4K3; 44 % Ctrl at CSNK1A1L; 90 % Ctrl on INSR; 23 % Ctrl at ABL1 (Y253F); 23 % Ctrl on MAP4K5. Further, the “% Ctrl @ 10000 nM” value at DRAK2 worked out at 58 % Ctrl; on MST1, 100 % Ctrl; on EPHB3 it was 75 % Ctrl; on FLT3 (K663Q), 56 % Ctrl; at CLK1 it was 31 % Ctrl; in assay [1] it was 78 % Ctrl. Besides, the “% Ctrl @ 10000 nM” value at BTK was determined as 77 % Ctrl; on TAOK3 it was 76 % Ctrl; at FGFR3 (G697C), 82 % Ctrl; on PIM2, 83 % Ctrl; at PAK3 it was 55 % Ctrl; at EPHA6, 25 % Ctrl. In addition, the “% Ctrl @ 10000 nM” value was 75 % Ctrl on CAMK1G, 100 % Ctrl at PRKX and 69 % Ctrl at FGFR4.
